Results: patent US10479752B2, “Deuterated tetramethyl dioic acids, compositions comprising them and uses thereof” (SYNDROMEX LTD., priority 2011, dated 2019)

What was measured:
[1] = Comparative oral bioavailability / pharmacokinetic study, single intravenous and oral administration; assay type: in vivo; conditions: rat
Experimental: The pharmacokinetic properties and the oral bioavailability were investigated for the following comparative compounds:
The plasma concentrations of the test items were measured by LC/MS/MS method following single intravenous and oral administration at the doses of 5 mg/kg body weight and 50 mg/kg body weight, respectively. Following intravenous administration small inter-individual variability was observed. Following i.v administration, the highest plasma concentrations were measured at the first sampling time-point (5 minutes) followed by a biphasic continuous decrease. […] The peak concentrations, tmax and the apparent terminal elimination half-lives (t1/2) were the followings:
The vehicle for oral administration was prepared in advance. Preparation: 1 g of carboxymethylcellulose sodium salt was dissolved in 100 ml of Humaqua. The vehicle was prepared at least 2 days prior to formulation of the test items. The vehicle was stored in a refrigerator when not in use.
The required amount of test item was weighed on an analytical balance, transferred into a suitable vial. The test item was dissolved in the required volume of N,N-dimethylacetamide (40% of the final volume). Dissolution of the test item was facilitated by gentle mixing by vortex. The solution was diluted with the suitable volume of PEG400 (40% of the final volume) then Salsol A (20% of the final volume). The final concentration of the test item in the solution was 5 mg/ml. The formulations were prepared freshly on the day of administration.
The required amount of test item was weighed on an analytical balance, transferred into a test tube and mixed with the suitable volume of 1% CMC to achieve the final concentration of 25 mg/ml. The suspension was sonicated twice in bath sonicator for 30 min at 40 C (each round), and left overnight at room temperature. On the following day, the suspension was sonicated again (bath sonicator, 30 min, 40° C.) and further homogenized in a glass/glass homogenizer trying to reaching an homogenous suspension. In spite of the above procedure the quality (homogeneity) of the suspension was not perfect. The suspension was stored at room temperature till administration.
Species/Strain rat/Wistar (Crl:(WI)BR rats)
Number of animals: 24 males (at least 32 for cannulation*)
After the acclimatization period, rats were equipped with a jugular vein cannula under isoflurane anesthesia. The following day the animals were used for the study. In the morning the rats were checked for health status and blood sampling before assigning them into the experimental group.
The terminal elimination phase was defined on the basis of the last 3-5 measured concentration except rat A4. […] The central volume of distribution (Vc: […]) was approximately equal to the total blood volume. The volume of distribution estimated for the steady state situation (Vss: 97.3-143 ml/kg) remained also small compared to the total extracellular fluid volume (˜300 ml/kg). The clearance was also very small for all experimental compound analogues. The smallest clearance was obtained for Compound 7: 23.2 ml/h/kg.

Male db/db Mouse Model = test: Comparative in vivo efficacy study, 3 h-fasting blood glucose; conditions: db/db mice
Experimental: Male db/db Mouse Model. Age of animal at start of treatment: 10-11 weeks. Animals per treatment group: 6-7 mice per each group.
Vehicle control: (1% CMC in water).
Positive control: Rosiglitazone, 25 mg/kg.
Group I: Compound 7″, 12.5 mg/kg.
Group II: Compound 7″, 25 mg/kg. […]
Group IV: Compound 7, 25 mg/kg.
Duration of treatment: 15 days.
1. Dosing: Animals are 10-11 weeks of age and were allowed to acclimate 1-2 weeks. After acclimation, animals were entered to the study and were […] daily for a duration of 15 days.
2. Formulation: compounds were formulated with […]. Formulation also involve sonication and vortexing before use.
4. Fasting Glucose Levels: 3 h-Fasting glucose levels were measured on tail blood of all the animals on days 0, 6, 12, and 16 (not shown) of the study using glucose sticks (Proforma).

[2] = Chemical and isotopic stability as solutions in DMSO/phosphate buffered saline over 48 hours
Experimental: A 1 mg/mL stock solution (˜55 mL) of deuterated compound in DMSO was prepared. A measured volume of stock (7.5 mL) was dispensed in to each of seven vials. To each vial was added a measured volume of PBS (aq) (3.0 mL), and each vial was agitated to mix. The vials were then placed in a thermostatically-controlled oven set to 37° C. At each time-point (0 h, 2 h, 4 h, 24 h, 48 h) a vial was drawn from the oven. To the vial was added MTBE (9.0 mL), and the mixture was stirred vigorously for 5 min. The layers were separated, and the MTBE layer was agitated with DI water (3.75 mL) for 1 min. The layers were separated. The MTBE layer was dried with MgSO4 for >1 h, and then filtered through a PTFE syringe filter into a tared vial. The solution was concentrated in vacuo to a solid residue, and the mass of the residue was calculated and recorded. To the residue a measured volume of MeOH was added to make (theoretically) a 2.5 mg/mL solution. In this case, 3.00 mL MeOH was added to each vial which theoretically contained 7.5 mg of compound. The content of each solution was measured by quantitative HPLC analysis (by comparison to a standard of known concentration). The MeOH solutions were then recovered, concentrated in vacuo to a solid, and then analyzed by GCMS to determine isotopic enrichment as the methyl ester derivatives.

[3] = DMSO/PBS solution, 37° C., 24 h
[4] = DMSO/PBS solution, 37° C., 48 h
[5] = Original Sample (before the stability study)

[2H]C([2H])([2H])C(CCCCCCCCCCCCC(C(=O)O)(C([2H])([2H])[2H])C([2H])([2H])[2H])(C(=O)O)C([2H])([2H])[2H] [Compound 7, 2,2,15,15-Tetramethyl(D12)-hexadecanedioic acid]
C0 ([1]; 5 mg/kg iv dose, Mean CV (%)): 64.3 (16.9%) μg/ml
t1/2 ([1]; 5 mg/kg iv dose, Mean CV (%)): 2.14 (2.6%) h
AUCinf ([1]; 5 mg/kg iv, Mean CV (%)): 218 (14.9%) h * μg/ml
Cmax ([1]; 50 mg/kg po dose, Mean CV (%)): 151 (29.0%) μg/ml
t1/2 ([1]; 50 mg/kg po dose, Mean CV (%)): 6.64 (50.3%) h
tmax ([1]; 50 mg/kg po dose, Mean CV (%)): 4 (0%) h
F (oral bioavailability) ([1]; 50 mg/kg po vs 5 mg/kg iv, Mean (CV %)): 102 (36.8) %
AUCinf ([1]; 50 mg/kg po, Mean CV (%)): 2221 (36.8%) h * μg/ml
mean residence time ([1]; intravenous administration): 4.2 h
clearance ([1]; iv administration): 0.387 mL/min/kg
mean residence time ([1]; oral administration): 11.8 h
tmax of the individual treated rats ([1]; oral administration 50 mg/kg, post-dose): 4 h
efficacy on 3 h-fasting blood glucose, in words (Male db/db Mouse Model; Group III (Compound 7, 25 mg dose) compared with Groups I and II (Compound 7″)): exceeds that of both treatment Groups I and II
glucose level reached (normalized plasma levels) (Male db/db Mouse Model; Group IV (Compound 7, 25 mg)): less than 110 mg %
efficacy on 3 h-fasting blood glucose, in words (Male db/db Mouse Model; Group IV (Compound 7, 25 mg), days 0, 6, 12, compared with Rosiglitazone 25 mg/kg): greater efficacy as compared with Rosiglitazone
GC/MS IE (isotopic enrichment) ([2]; DMSO/PBS solution, 37° C., 0 h): 99.9%
HPLC Area Percentage ([2]; DMSO/PBS solution, 37° C., 0 h): 96.8%
HPLC Assay ([2]; DMSO/PBS solution, 37° C., 0 h): 89.4%
GC/MS IE (isotopic enrichment) ([2]; DMSO/PBS solution, 37° C., 2 h): 99.9%
HPLC Area Percentage ([2]; DMSO/PBS solution, 37° C., 2 h): 95.4%
HPLC Assay ([2]; DMSO/PBS solution, 37° C., 2 h): 101.6%
GC/MS IE (isotopic enrichment) ([2]; DMSO/PBS solution, 37° C., 4 h): 99.9%
HPLC Area Percentage ([2]; DMSO/PBS solution, 37° C., 4 h): 95.8%
HPLC Assay ([2]; DMSO/PBS solution, 37° C., 4 h): 91.6%
GC/MS IE (isotopic enrichment) [2, 3]: 99.9%
HPLC Area Percentage [2, 3]: 96.9%
HPLC Assay [2, 3]: 92.3%
GC/MS IE (isotopic enrichment) [2, 4]: 99.9%
HPLC Area Percentage [2, 4]: 96.7%
HPLC Assay [2, 4]: 82.2%
chemical purity (HPLC area percent) with respect to related substances ([2]; DMSO/PBS solution, 37° C., all samples through the study): around 96%
analyte recovered, yield ([2]; DMSO/PBS solution, 37° C., summary over the study): approximately 90%
disenrichment of the product (isotopic stability) ([2]; DMSO/PBS solution, 37° C., throughout the time period of the study): No disenrichment
GC/MS IE (isotopic enrichment) [2, 5]: 99.9%
HPLC Area Percentage [2, 5]: 99.5%
